tested on: VEGF; experiment: VEGF-ELISA assay: VEGF secretion from HL-1 cardiomyocyte cell line; assay type: cell-based, Murine; settings: HL-1 cells, 18 hr, VEGF in conditioned media by ELISA; read-out: EC50 (concentration of compound that induces the production of an amount of VEGF equal to half the maximum amount of VEGF induced by that compound)
Procedure: ^1EC50 is the concentration of compound that induces the production of an amount of VEGF equal to half the maximum amount of VEGF induced by that compound.
Any compound of the present invention can be screened by a VEGF-ELISA assay. VEGF secretion is assayed in the HL-1 cardiomyocyte cell line as described in Claycomb, W. C., “HL-1 cells: a cardiac muscle cell line that contracts and retains phenotypic characteristics of the adult cardiomyocyte”, Proc. Natl. Acad. Sci U.S.A., Vol. 95, pp. 2979-84 (1998). For experiments, HL-1 cells are plated in 96-well plates at a density of 2×10^4 cells per well in growth medium: EXCEL 320 media (JRH Biosciences, Lenexia, Kans.) plus 10% fetal bovine serum (BioWhitaker), 100 nM retinoic acid (Sigma, St Louis, Mo.), 10 μM norepinephrine (Sigma), 10 μg/ml insulin (Life Technologies, Grand Island, N.Y.), 1× non-essential amino acid supplement (Life Technologies), 50 μg/ml endothelial cell growth supplement (Upstate Biotechnology, Lake Placid, N.Y.), 100 units/ml penicillin, 100 units/mil streptomycin (Life Technologies). After 24 hrs, the media is replaced with a low-growth media (HL-1 media with 2% fetal bovine serum and without endothelial cell growth supplement) containing test compounds with 0.5% dimethyl sulfoxide (DMSO). After 18 hrs, conditioned media from the treated cells was assayed for VEGF content with a Murine VEGF-ELISA kit (R & D Systems, Minneapolis, Minn.). The amount of VEGF secreted into the media over an 18 hr period is normalized to positive control wells which are treated with a maximally effective concentration (1 mM) of deferoxamine mesylate (Sigma, St. Louis) and are reported as “percent activity,” where the VEGF in unstimulated wells is defined as 0% and the VEGF in wells treated with 1 mM deferoxamine is defined as 100%. Potency is determined by stimulating cells with 10 concentrations of test compounds (200 nM to 100 μM) and fitting the data to a variable slope sigmoidal dose-response curve using GraphPad Prism version 3.00 for Windows 95 (GraphPad Software, San Diego, Calif.). Determinations for each test compound are performed in three separate experiments and the means ±standard deviation of the Log(EC50) and maximum response are evaluated. Compounds for pharmaceutical use are selected based upon the greatest percent activity.

SMILES | EC50 [µM]
C(=N\Nc1ccccn1)/c1ccccn1 [Example 1, N-Pyridin-2-yl-N′-2-ylmethylene-hydrazine] | 1.6
C/C(=N\Nc1ccccn1)c1ccccn1 [Example 2, N-Pyridin-2-yl-N′-(1-pyridin-2-yl-ethylidene)hydrazine] | 0.65
CN(/N=C/c1ccccn1)c1ccccn1 [Example 3, N-methyl-N-pyridin-2-yl-N′-pyridin-2-ylmethylene-hydrazine] | 0.75
c1ccc(CNNc2ccccn2)nc1 [Example 4, N-Pyridin-2-yl-N′-pyridin-2-ylmethyl-hydrazine] | 5.7
C/C(=N\N(C)c1ccccn1)c1ccccn1 [Example 5, N-Methyl-N-pyridin-2-yl-N′-(1-pyridin-2-yl-ethylidene)-hydrazine] | 26.2
C(=N\Nc1nc2ccccc2s1)/c1ccccn1 [Example 6, N-Benzothiazol-2-yl-N′-pyridin-2-ylmethylene-hydrazine] | 1.5
C(=N\Nc1ccc2ccccc2n1)/c1ccccn1 [Example 7, N-Pyridin-2-ylmethylene-N′-quinolin-2-yl-hydrazine] | 3.15
FC(F)(F)c1cc(C(F)(F)F)c2ccc(N/N=C/c3ccccn3)nc2n1 [Example 8, N-(5,7-Bis-trifluoromethyl-[1,8]naphthyridin-2-yl)-N′-pyridin-2-ylmethylene-hydrazine] | 1.57
Clc1ccc(N/N=C/c2ccccn2)nn1 [Example 9, N-(6-Chloro-pyridazin-3-yl)-N′-pyridin-2-ylmethylene-hydrazine] | 6.7
FC(F)(F)c1cnc(N/N=C/c2ccccn2)c(Cl)c1 [Example 10, N-(3-Chloro-5-trifluoromethyl-pyridin-2-yl)-N′-pyridin-2-ylmethylene-hydrazine] | 1.56
CN(/N=C/c1ccccn1)c1ncc(C(F)(F)F)cc1Cl [Example 11, N-(3-Chloro-5-trifluoromethyl-pyridin-2-yl)-N-methyl-N′pyridin-2-ylmethylene-hydrazine] | 15
C/C(=N\Nc1nc(C)cc(C)n1)c1ccccn1 [Example 12, N-(4,6-Dimethyl-pyrimidin-2-yl)-N′-(1-pyridin-2-yl-ethylidien)-hydrazine] | 4.78
C/C(=N\Nc1ccc(C(F)(F)F)cc1)c1ccccn1 [Example 13, N-(1-Pyridin-2-yl-ethylidene)-N′-(4-trifluoromethyl-phenyl)-hydrazine] | 4.3
C(=N\Nc1nnc2c(n1)[nH]c1ccccc12)/c1ccccn1 [Example 14, N-Pyridin-2-ylmethylene-N′-(9H-1,3,4,9-tetraaza-fluoren-2-yl)-hydrazine] | 2.3
C/C(=N\Nc1nnc2c(n1)[nH]c1ccccc12)c1ccccn1 [Example 15, N-(1-Pyridin-2-yl-ethylidene)-N-(9H-1,3,4,9-tetraaza-fluoren-2-yl)-hydrazine] | 0.36
C(=N\Nc1ccccc1)/c1ccccn1 [Example 16, N-Phenyl-N′-pyridin-2-ylmethylene-hydrazine] | 13
Cc1ccccc1/C=N/Nc1ccccc1 [Example 17, N-(2-Methyl-benzylidene)-N′-phenyl-hydrazine] | 15
Oc1ccccc1/C=N/Nc1ccccc1 [Example 18, 2-(Phenyl-hydrazonomethyl)-phenol] | 14
Oc1ccccc1/C=N/Nc1nccnc1Cl [Example 19, 2-[(3-Chloro-pyrazin-2-yl)-hydrazonomethyl]-phenol] | 15
Oc1ccccc1/C=N/Nc1ccccn1 [Example 20, 2-Pyridyl-(2-hydroxy-benzylidene)-hydrazide] | 5.7
Oc1ccc(/C=N/Nc2nccnc2Cl)c(O)c1 [Example 21, 4-[(3-Chloro-pyrazin-2-yl)-hydrazonomethyl]-benzene-1,3-diol] | 10.3
Cc1ncc(CO)c(/C=N/Nc2ccccn2)c1O [Example 22, 5-Hydroxymethyl-2-methyl-4-(pyridin-2-yl-hydrazonomethyl)-3-ol] | 1.77
COc1cccc(/C=N/Nc2ccccn2)c1O [Example 23, 2-Methoxy-6-(pyridin-2-yl-hydrazonomethyl)-phenol] | 7
Cc1cccc(/C=N/Nc2ccccn2)n1 [Example 25, N-(6-Methyl-pyridin-2-ylmethylene)-N′-pyridin-2-yl-hydrazine] | 28.6
Cc1cccc(/C=N/Nc2ccc(Cl)nn2)n1 [Example 26, N-(6-Chloro-pyridazine-3-yl)-N′-(6-methyl-pyridin-2-ylmethylene)-hydrazine] | 40
Cc1sc2ncnc(N/N=C/c3c(O)ccc4ccccc34)c2c1C [Example 27] | 1.8
Oc1ccc(/C=N/Nc2nc(N3CCCC3)nc(N3CCCC3)n2)cc1O [Example 28, 4-[(4,6-Di-pyrrolidin-1-yl-[1,3,5]triazin-2-yl)-hydrazonomethyl]-benzene-1,2-diol] | 1.1

From US6660737B2, “Medicinal uses of hydrazones” (The Procter & Gamble Company, priority 2001, dated 2003)
